According to patent US20060159762A1, “Stable pharmaceutical composition comprising an active substance in the form of solid solution” (priority 2004, published 2006):

Assay: Comparative storage stability: total degradation products and related substances by HPLC
Assay type: physicochemical
Details: for increase of degradation products and related substances relative to the starting analysis, non-formulated active substance versus stable pharmaceutical composition (solid solution): 6 days storage on 60° C.
Description: (§1) Comparison of the total amount of degradation products and related substances in non-formulated active substance and in the stable pharmaceutical composition according to the present invention comprising the active substance in the form of solid solution is presented by the graph 1. The pharmaceutical composition is prepared as described in example 2. The amount of degradation products and related substances is determined by HPLC method. [drawing]
as §1, with “in” for “by the”, “2.” for “1.”, “5.” for “2.”, “[drawing] [drawing]” for “[drawing]”

SMILES: COc1ccc2[n-]c([S+]([O-])Cc3ncc(C)c(OC)c3C)nc2c1.COc1ccc2[n-]c([S+]([O-])Cc3ncc(C)c(OC)c3C)nc2c1.[Mg+2] (stereo not drawn) [esomeprazole magnesium, Esomeprazole magnesium]
- increase of degradation products and related substances relative to the starting analysis, non-formulated active substance versus stable pharmaceutical composition (solid solution) (composition prepared as described in example 2): four times higher
- increase of degradation products and related substances relative to the starting analysis, non-formulated active substance versus stable pharmaceutical composition (solid solution) (composition prepared as described in example 5): > 10 times
- increase of the amount of degradation products and related substances relative to the starting analysis, non-formulated active substance versus stable pharmaceutical composition (solid solution) (14 days storage on 40° C., composition prepared as described in example 2): three times higher
